Experimental data from US11026936B2, “Piperidinyl-propanone derivatives” (Merck Patent GmbH, priority 2016, dated 2021).

Assays:
PDHK2 = PDHK2 (Homo sapiens (Human), UniProt Q15119); experiment: Biochemical activity testing of PDHK2: PDC inactivation assay; details: human rec PDHK2, PDC from porcine heart, ATP 5 μM; read-out: IC50 PDHK2 (enzyme assay)
Description: Biochemical Activity Testing of PDHK2: PDC Inactivation Assay
The biochemical activity assay for PDHK2 is based on the inactivation of PDC through phosphorylation by PDHK2. The assay is run in two steps: the enzymatic PDHK2 reaction in which isolated PDC is phosphorylated by PDHK2 with ATP as co-substrate and the PDC activity assay in which pyruvate and NAD are converted to acetyl-CoA and NADH. The PDC activity correlates to the increase in NADH and thereby is detectable directly via the increasing fluorescence signal (Exc 340 nm, Em 450 nm). Inhibition of PDHK2 results in a lower phosphorylation status and thereby a less decrease in activity of PDC and a stronger increase in NADH fluorescence signal.
The PDC inactivation assay is performed in Greiner 384-well microtiter plates and is used for high throughput screen. 4 μl of PDHK2 (human, rec, Carna Bioscience, 10 ng/μl-137 nM final concentration) and PDC (isolated from porcine heart, Sigma-Aldrich, 20 mU/ml final concentration) are incubated in the absence or presence of the test compound (10 dilution concentrations) for 30 min at room temperature in kinase buffer (15 mM potassium phosphate buffer, pH 7.0, 60 mM KCl, 1.5 mM DTT, 2.5 mM MgCl2, 0.0125% (w/v) BSA, 0.125% Pluronic F-68). The kinase reaction is started by the addition of 4 μl ATP substrate solution (fc 5 μM in kinase buffer). After 30 min incubation at 37° C. 40 μl of PDC reaction solution (100 mM Tris/HCl, pH 7.8, 0.5 mM EDTA, 1 mM MgCl2, 50 mM NaF, 0.25 mM Coenzyme A, 5 mM pyruvate, 1 mM NAD, 5 mM DTT, 1 mM thiamine pyrophosphate) is added. The first fluorescence measurement is performed on a Perkin Elmer Envision (Exc 340 nm, Em 450 nm). The reaction is incubated for 45 min at room temperature. Afterwards a second fluorescence measurement is performed and the PDC activity is calculated by the difference between both measurements. As full value for the PDHK2 assay the inhibitor-free PDHK2 reaction is used. The pharmacological zero value used is DCA (Sigma-Aldrich) in a final concentration of 3 mM. The inhibitory values (IC50) were determined using either the program Symyx Assay Explorer® or Condosseo® from GeneData.

human PDHK2 (12-407) = human PDHK2 (12-407) (Homo sapiens (Human), UniProt Q15119); experiment: Isothermal titration calorimetry (ITC) binding; details: 30° C., pH 7.5
Method: Isothermal Titration Calorimetry
ITC measurements were performed with a VP-ITC micro calorimeter (Microcal, LLC/GE Healthcare Bio-Sciences AB, Uppsala, Sweden). In general titrations were performed by titrating the protein (50 μM) to the test compound (5 μM) in 12 μl injections. All binding experiments were carried out at 30° C. In general the test compounds were diluted form DMSO stock solutions into the measurement buffer with a maximum final concentration of 1% DMSO. The measurement buffer was 20 mM HEPES, 135 mM KCl, 1 mM TCEP, 2 mM MgCl2, 15 mM NaH2PO4, pH 7.5. The human PDHK2 (12-407) was produced in E. coli as his-tagged protein and purified by affinity chromatography. The tag was removed by side specific proteolysis. Before titration the protein buffer was changed to the measurement buffer containing the same DMSO concentration as the test compound dilution. ITC data analysis was performed using Origin 7 calorimetry software from the same supplier. For most measurements a binding model of one binding site was assumed. According to the applied mathematical model it is possible to calculate the binding constant (KA), the observed binding enthalpy (ΔH^obs) as well as the stoichiometry (N) of the formed complex. Preceding analysis the raw data was corrected for the heats of dilution by extrapolating from the saturation value from the end of titration. In order to allow for direct comparison between the respective experimental series and protein preparations the protein concentration was corrected by referencing titrations to a well behaved standard inhibitor. The apparent stoichiometry values defined the fraction of binding competent protein and compensated for relative errors in protein concentration measurements. This corrected protein concentration was used to set up ITC experiment series with test compounds. Any deviations from ideal 1:1 stoichiometry observed here were attributed to errors in compound concentration. This nominal compound concentration was corrected as well to achieve 1:1 stoichiometry in the fit.

[1] = test system: PDH-E1alpha (pSer300) in HEK293T cells; experiment: Cellular immunofluorescence assay, PDH-E1alpha (pSer300); format: cell-based; details: Homo sapiens, HEK-293T, 5 hours incubation, read-out: IC50 (cell data)
Method: Cellular Assay for Determination of Compound Activities
Compound activities were determined in a cellular immunofluorescence assay. Human HEK293T cells were seeded into black 384-well plates with clear bottom and grown overnight.
Next day, test compounds were added to the wells and the plates incubated for 5 hours. Following this, cells were fixed with formaldehyde, permeabilised and blocked. The primary antibody, Anti-PDH-E1alpha (pSer300), AP1064 (Merck Millipore) was added and incubated overnight in the plate wells. Next, cells were washed and the seconday antibody, Alexa Fluor 488, goat anti-rabbit ab (A-11008, Invitrogen) was added together with Hoechst 33258 (H3569, Invitrogen) and incubated for 1 hour in the plate wells. Finally, cells were washed and the plates were measured on the laser scanning cytometer acumen hci (TTpLabtech).
The raw data were normalized against a pharmacological inhibitor control and dose response curves were generated by plotting the percent effect values using the software package Genedata screener (Genedata).

IC50 (PDHK2): 75 nM
Kd (human PDHK2 (12-407)): 4.2 nM
Compound: C[C@@H]1CN(C(=O)[C@@](C)(O)C(F)(F)F)CC[C@@H]1C1(c2nnc(-c3ccc(F)cc3)[nH]2)CC1 [Compound A19, (R)-3,3,3-Trifluoro-1-((3S,4S)-4-{1-[5-(4-fluoro-phenyl)-4H-[1,2,4]triazol-3-yl]-cyclopropyl}-3-methyl-piperidin-1-yl)-2-hydroxy-2-methyl-propan-1-one]
IC50 [1]: 28 nM
